Assay results as given in patent US4489003A, “Imidazobenzodiazepines” (Hoffmann-La Roche Inc., priority 1982, dated 1984).

Tests used:
[1] = test system: spasmodic seizures caused by pentetrazole; test: antipentetrazole test; format: in vivo; details: Rattus norvegicus, po, 0.5 h; female rats 60-80 g, p.o. 30 minutes before 120 mg/kg pentetrazole i.p.
Procedure: The central properties of the compounds of formula I provided by the present invention can be determinded, for example, in the antipentetrazole test which is described hereinafter and which is generally recognized for recording anticonvulsant properties.
In this animal experiment the compound under investigation is administered orally to female rats weighing 60-80 g and 30 minutes later there are administered intraperitoneally 120 mg/kg of pentetrazole which causes emprosthotonus and tonic stretchings of the fore and/or hind limbs in unprotected experimental animals 1 to 4 minutes after the injection. Ten experimental animals are used per dosage of test substance. After counting the protected experimental animals, the ED50 is determined according to the Probit method. The ED50 is that dosage which protects 50% of the experimental animals from the spasmodic seizures caused by pentetrazole.

[2] = test system: sedative, muscle relaxant and motor coordination-disturbing activity caused by high dosages of diazepam; test: traction test (antagonism of diazepam); format: in vivo; details: Mus musculus, po, 0.25 h; mice, p.o. 15 minutes after 3 mg/kg diazepam i.p.
Procedure: In this animal experiment the ability of the test substances to antagonise the sedative, muscle relaxant and motor coordination-disturbing activity caused by high dosages of diazepam is determined.
Mice weighing 17-29 g are lifted by the tail and are allowed to grip a taut horizontal wire (length 15 cm, height 20 cm, diameter 1 mm) with the front paws, whereupon the experimental animals are released. Untreated control animals are capable of gripping the wire with both front paws and at least one hind paw within 3 seconds. If 3 mg/kg of diazepam are administered intraperitoneally to the experimental animals, then their aforementioned capabilities disappear, i.e. they are no longer capable of gripping the taut horizontal wire within 3 seconds with both front paws and at least one hind paw. 15 minutes after the administration of diazepam the compound under investigation is administered orally to the experimental animals, whereupon there are counted those animals which have regained the aforementioned capabilities. The ED50 is that dosage which in 50% of the experimental animals antagonizes the action of diazepam, i.e. counteracts this.

[3] = acute toxicity, single oral administration; details: rat, in vivo; single oral administration to rats
From the text: The results obtained with representative compounds of formula I in the experiments described earlier are compiled in the following Table. The Table also contains data concerning the acute toxcity of some of these compounds (LD50 in mg/kg following single oral administration to rats).

[4] = target: central benzodiazepine receptors; test: inhibition of the binding of tritiated diazepam at the specific benzodiazepine receptors in the cerebral cortex; details: [3H]diazepam
Procedure: The affinity of compounds of general formula I to the central benzodiazepine receptors was determined according to the method described in Life Science 20, 2101-2110 (1977) and Science 198, 849-851 (1977). According to this method, the inhibition of the binding of tritiated diazepam at the specific benzodiazepine receptors in the cerebral cortex by the respective test substances is ascertained. The IC50 ("50% inhibiting concentration") is that concentration of the respective test substance which brings about a 50 percent inhibition of the specific binding of the tritiated diazepam at the specific benzodiazepine receptors in the cerebral cortex.

O=C(OCC1CC1)c1ncn2c1[C@@H]1CCCN1C(=O)c1c(Cl)cccc1-2
ED50 [1]: 0.66 mg/kg | ED50 [2]: 0.8 mg/kg | LD50 [3]: 1000 to 2000 mg/kg | IC50 [4]: 2300 nM

O=C(OCC1CC1)c1ncn2c1[C@@H]1CCN1C(=O)c1c(Cl)cccc1-2
ED50 [1]: 0.27 mg/kg | ED50 [2]: < 30 mg/kg | IC50 [4]: 1100 nM

O=C(OCc1ccccc1)c1ncn2c1[C@@H]1CCCN1C(=O)c1c(Cl)cccc1-2
ED50 [1]: > 100 mg/kg | ED50 [2]: 0.09 mg/kg | IC50 [4]: 1500 nM

O=C(OC1CCCCC1)c1ncn2c1[C@@H]1CCCN1C(=O)c1c(Br)cccc1-2
ED50 [1]: 7 mg/kg | ED50 [2]: < 30 mg/kg | LD50 [3]: > 5000 mg/kg | IC50 [4]: 2700 nM

O=C(OCC1CC1)c1ncn2c1[C@@H]1CCCN1C(=O)c1c(Br)cccc1-2
ED50 [1]: 0.63 mg/kg | ED50 [2]: < 30 mg/kg | LD50 [3]: 625 to 1250 mg/kg | IC50 [4]: 2600 nM

O=C(OC1CCCCC1)c1ncn2c1[C@@H]1CCCN1C(=O)c1c(I)cccc1-2
ED50 [1]: 2.2 mg/kg | ED50 [2]: > 30 mg/kg | LD50 [3]: > 5000 mg/kg | IC50 [4]: 2100 nM

C#CCOC(=O)c1ncn2c1[C@@H]1CCCN1C(=O)c1c(Cl)cccc1-2 [Example 27, 2-propynyl (S)-8-chloro-11,12,13,13a-tetrahydro-9-oxo-9H-imidazo[1,5-a]pyrrolo[2,1-c][1,4]benzodiazepine-1-carboxylate]
ED50 [1]: > 100 mg/kg | ED50 [2]: 0.005 mg/kg | IC50 [4]: 2100 nM
